According to patent EP0153845A2, “CRF analogs” (THE SALK INSTITUTE FOR BIOLOGICAL STUDIES, priority 1984, dated 1985):
Square brackets hold non-standard residues; d marks the D form. Ends that are not written are not given here. Peptide text beside a SMILES is read from it. Nle = CCCC[C@H](N)C(=O)O

What was measured:
[1] = biological target: T1, cultured rat pituitary cells (Rattus norvegicus, UniProt P35353); test: Block of ACTH and β-endorphin secretion by cultured rat pituitary cells by CRF antagonists (procedure of Example XLIII); assay type: cell-based; conditions: for secretion of ACTH and β-END-LI (antagonist test): general procedure of Example XLIII
T1 sequence (P35353 24-415): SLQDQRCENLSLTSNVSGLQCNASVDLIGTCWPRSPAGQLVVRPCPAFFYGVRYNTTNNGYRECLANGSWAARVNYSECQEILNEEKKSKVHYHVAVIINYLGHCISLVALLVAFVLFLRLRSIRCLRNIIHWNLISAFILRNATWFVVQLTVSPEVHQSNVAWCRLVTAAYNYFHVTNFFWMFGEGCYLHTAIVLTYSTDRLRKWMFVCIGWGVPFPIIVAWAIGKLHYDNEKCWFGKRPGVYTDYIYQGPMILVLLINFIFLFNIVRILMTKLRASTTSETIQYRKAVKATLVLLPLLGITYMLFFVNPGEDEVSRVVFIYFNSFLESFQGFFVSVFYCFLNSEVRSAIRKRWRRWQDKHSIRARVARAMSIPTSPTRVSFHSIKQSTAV
Method: (§1) The effectiveness of synthetic CRF antagonists to block the secretion of ACTH and B-endorphin by cultured rat pituitary cells is measured using the procedure as generally set forth in Vale et al., Endocrinology, 91, 562 (1972). In vivo testing is carried out using the general procedure set forth in C. Rivier et al., Science, 218, 377 (1982).

[2] = tested on: ACTH and B-END-LI secretion; test: ACTH and β-END-LI secretion in vivo after intravenous hCRF in rats
Method: Plasma levels of ACTH and B-END-LI are elevated for at least 5-20 minutes following the intraveneous administration of hCRF to nembutal-anesthesized male rats and to quiescent male or female rats with indwelling intravenous cannulae.

[3] = Lowering of blood pressure, in vivo testing by the general procedure of Example III
spontaneous ACTH release = test: Spontaneous ACTH release by adrenalectomized rats; assay type: in vivo; conditions: iv injection of 3 mg/kg BW (2.7 nmole)
Method: as §1
The in vivo effect of CRF antagonists is tested on the spontaneous ACTH release by adrenalectomized rats.

[4] = tested on: TRF-stimulated secretion of TSH and prolactin; test: Specificity: effect on TRF-stimulated TSH and prolactin secretion; assay type: cell-based
[5] = tested on: CRF-induced ACTH secretion; test: CRF-induced ACTH secretion in intact, non-anesthetized rats; assay type: in vivo
[6] = tested on: GRF-stimulated secretion of GH; test: Specificity: effect on GRF-stimulated GH secretion; assay type: cell-based
[7] = tested on: ACTH rise due to ether-exposure; test: Ether-exposure (stressor) induced ACTH rise in intact rats; assay type: in vivo
[8] = tested on: GnRH-stimulated secretion of LH and FSH; test: Specificity: effect on GnRH-stimulated LH and FSH secretion; assay type: cell-based

Q: For `CCCC[C@H](NC(=O)[C@H](CCC(=O)O)NC(=O)[C@H](CC(C)C)NC(=O)[C@H](CCCC)NC(=O)[C@H](CCC(=O)O)NC(=O)[C@H](CCCNC(=N)N)NC(=O)[C@H](CC(C)C)NC(=O)[C@H](CC(C)C)NC(=O)[C@H](Cc1c[nH]cn1)NC(=O)[C@H](Cc1ccccc1)NC(=O)[C@@H](NC(=O)[C@@H](N)CC(C)C)[C@@H](C)O)C(=O)N[C@@H](C)C(=O)N[C@@H](CCCCN)C(=O)N[C@@H](C)C(=O)N[C@@H](CCC(=O)O)C(=O)N[C@@H](CCC(N)=O)C(=O)N[C@@H](CCC(=O)O)C(=O)N[C@@H](C)C(=O)N[C@@H](CCC(=O)O)C(=O)N[C@@H](CCC(N)=O)C(=O)N[C@@H](C)C(=O)N[C@@H](C)C(=O)N[C@@H](CC(C)C)C(=O)N[C@@H](CC(N)=O)C(=O)N[C@@H](CCCNC(=N)N)C(=O)N[C@@H](CC(C)C)C(=O)N[C@@H](CC(C)C)C(=O)N[C@@H](CC(C)C)C(=O)N[C@@H](CCC(=O)O)C(=O)N[C@@H](CCC(=O)O)C(=O)N[C@@H](C)C(N)=O` [[Nle^18,21]-AHC(10-41)] (H-LTFHLLRE[Nle]LE[Nle]AKAEQEAEQAALNRLLLEEA-NH2), which “secretion of ACTH and β-END-LI (antagonist test)” value (shortened to “secretion of ACTH and β-END-LI”) [1] is on record?
A: inhibits

Q: For `CCCC[C@H](NC(=O)[C@H](CCC(=O)O)NC(=O)[C@H](CC(C)C)NC(=O)[C@@H](NC(=O)[C@H](CCC(=O)O)NC(=O)[C@H](CCCNC(=N)N)NC(=O)[C@H](CC(C)C)NC(=O)[C@H](CC(C)C)NC(=O)[C@H](Cc1c[nH]cn1)NC(=O)[C@H](Cc1ccccc1)NC(=O)[C@@H](NC(=O)[C@H](CC(C)C)NC(=O)[C@@H](N)CC(=O)O)[C@@H](C)O)C(C)C)C(=O)N[C@@H](C)C(=O)N[C@@H](CCCNC(=N)N)C(=O)N[C@@H](C)C(=O)N[C@@H](CCC(=O)O)C(=O)N[C@@H](CCC(N)=O)C(=O)N[C@@H](CC(C)C)C(=O)N[C@@H](C)C(=O)N[C@@H](CCC(N)=O)C(=O)N[C@@H](CCC(N)=O)C(=O)N[C@@H](C)C(=O)N[C@@H](Cc1ccc(O)cc1)C(=O)N[C@@H](CO)C(=O)N[C@@H](CC(N)=O)C(=O)N[C@@H](CCCNC(=N)N)C(=O)N[C@@H](CCCCN)C(=O)N[C@@H](CC(C)C)C(=O)N[C@@H](CCSC)C(=O)N[C@@H](CCC(=O)O)C(=O)N[C@H](C(=O)N[C@H](C(N)=O)[C@@H](C)CC)[C@@H](C)CC` [[Nle^21, Tyr^32]-hCRF(9-41)] (H-DLTFHLLREVLE[Nle]ARAEQLAQQAYSNRKLMEII-NH2), which “secretion of ACTH and β-END-LI” value [1] is on record?
A: inhibits

Q: Which results are given for `CC[C@H](C)[C@H](NC(=O)[C@@H](NC(=O)[C@H](CCC(=O)O)NC(=O)[C@H](CCSC)NC(=O)[C@H](CC(C)C)NC(=O)[C@H](CCCCN)NC(=O)[C@H](CCCNC(=N)N)NC(=O)[C@H](CC(N)=O)NC(=O)[C@H](CO)NC(=O)[C@H](Cc1c[nH]cn1)NC(=O)[C@H](C)NC(=O)[C@H](CCC(N)=O)NC(=O)[C@H](CCC(N)=O)NC(=O)[C@H](C)NC(=O)[C@H](CC(C)C)NC(=O)[C@H](CCC(N)=O)NC(=O)[C@H](CCC(=O)O)NC(=O)[C@H](C)NC(=O)[C@H](CCCNC(=N)N)NC(=O)[C@H](C)NC(=O)[C@H](CCSC)NC(=O)[C@H](CCC(=O)O)NC(=O)[C@H](CC(C)C)NC(=O)[C@@H](NC(=O)[C@H](CCC(=O)O)NC(=O)[C@H](CCCNC(=N)N)NC(=O)[C@H](CC(C)C)NC(=O)[C@H](CC(C)C)NC(=O)[C@H](Cc1c[nH]cn1)NC(=O)[C@H](Cc1ccccc1)NC(=O)[C@@H](NC(=O)[C@H](CC(C)C)NC(=O)[C@H](CC(=O)O)NC(=O)[C@H](CC(C)C)NC(=O)[C@H](CO)NC(=O)[C@@H](NC(=O)[C@@H]1CCCN1C(=O)[C@@H]1CCCN1C(=O)[C@H](CCC(=O)O)NC(=O)[C@H](CCC(=O)O)NC(=O)[C@@H](N)CO)[C@@H](C)CC)[C@@H](C)O)C(C)C)[C@@H](C)CC)C(N)=O` [hCRF]?
A: time for which plasma levels of ACTH and B-END-LI are elevated ([2]; intravenous administration, nembutal-anesthetized male rats and quiescent male or female rats with indwelling intravenous cannulae): 5 to 20 min; ACTH and B-END-LI secretion in vivo ([2]; several rat preparations): powerful stimulator

Q: Which “secretion of ACTH and β-END-LI” value [1] does the source give for “Ac-DLTFHLLREVLEMARAEQLAQQAHSNRKLMDII-NH2 [[Acetyl-Asp^9, Asp^39]-hCRF(9-41)]” here?
A: inhibits

Q: With “H-Asp-CML-Thr-Leu-Glu-CML-CML-Arg-Glu-Met-CML-Glu-Met-CMA-Lys-Ala-Glu-Gln-CML-Ala-Glu-Gln-Ala-CMA-CML-Asn-Arg-Leu-CML-Leu-Glu-Glu-. CMA-NB2” as the compound, how does the “secretion of ACTH and β-END-LI” value [1] read?
A: inhibits

Q: Which “secretion of ACTH and β-END-LI” value [1] does the source give for “H-Asp-CML-Thr-Leu-Glu-CML-Leu-Arg-Glu-Met-CML-Glu-Met-Ala-Lys-Ala-Glu-Gln-CML-Ala-Glu-Gln-Ala-Ala-CML-Asn-Arg-Leu-CML-Leu-Glu-Glu-Ala-NH2 [[CML^10,14,19,27,33,38]-AHC(9-41)]” here?
A: stimulates

Q: What about the “lowering of blood pressure” value [3] of the same compound?
A: very significant lowering of blood pressure

Q: For “H-DLSLELLRKMIEIAKQEKEKQQAANNRLLMDTI-NH2 [[Ala^21, Met^37]-sauvagine(8-40)]”, which “secretion of ACTH and β-END-LI” value [1] is on record?
A: inhibits

Q: Which “secretion of ACTH and β-END-LI” value [1] does the source give for “H-DLSLELLRKMIEIEKQEKLKQQAANNRLLMDTI-NH2 [[Leu^26, Met^37]-sauvagine(8-40)]” here?
A: inhibits

Q: Which “secretion of ACTH and β-END-LI” value [1] does the source give for “H-DLTFALLREMLEMAKAEQEAEQAALNRLLLEEA-NH2 [[Ala^13]-AHC(9-41)]” here?
A: inhibits

Q: For “H-DLTFELLREVLEVARAEQLAQQAHSNRKLMEII-NH2 [[G1u^13, Val^21]-hCRF(9-41)]”, which “secretion of ACTH and β-END-LI” value [1] is on record?
A: inhibits

Q: Which results are given for “H-DLTFHLLREMLEMAKAEQEAEQAALNRLLLEEA-NH2 [AHC (9-41)]”?
A: plasma ACTH levels (spontaneous ACTH release) (spontaneous ACTH release): marked decrease; type of inhibition of oCRF-stimulated ACTH secretion ([1]; different concentrations of oCRF, several concentrations of antagonist against oCRF (1 nM)): competitive inhibition; effect on the TRF-stimulated secretion of TSH and prolactin [4]: no effect; inhibition of CRF-induced ACTH secretion [5]: dose-related inhibition; effect on the GRF-stimulated secretion of GH [6]: no effect; ACTH rise due to ether-exposure [7]: prevents most, but not all; effect on the GnRH-stimulated secretion of LH and FSH [8]: no effect

Q: With “H-DLTFHLLREVAEMTRAEQLAQQAHSNRKLMEII-NH2 [(Ala^19, Thr^22]-hCRF(9-41)]” as the compound, how does the “secretion of ACTH and β-END-LI” value [1] read?
A: inhibits

Q: With “H-DLTFHLLRNMIEMARNENQREQAGLNRKYLDEV-NH2 [Carp Urotensin 1(9-41)]” as the compound, how does the “secretion of ACTH and β-END-LI” value [1] read?
A: inhibits

Q: Which “secretion of ACTH and β-END-LI” value [1] does the source give for “H-DLTLELLREMLEMAKAEQEAEQAALNRLLLEEA-NH2 [[Leu^12, Glu^13]-AHC(9-41)]” here?
A: inhibits

Q: With “H-IDLTFHLLRNMIEMARNENQREQAGLNRKYLDEV-NH2 [Carp Urotensin 1(8-41)]” as the compound, how does the “secretion of ACTH and β-END-LI” value [1] read?
A: inhibits

Q: For “H-LDLTFHLLREVLEMAKAEQLAQQAHSNRKLLEII-NH2 [[Lys^23, Leu^38]-hCRF(8-41)]”, which “secretion of ACTH and β-END-LI” value [1] is on record?
A: inhibits

Q: For “H-LDLTLELLREMLEMEKAEKEAEQAALNRLLLEEA-NH2 [[G1u^13,22, Leu^l2, Lys^26]-AHC(8-41)]”, which “secretion of ACTH and β-END-LI” value [1] is on record?
A: inhibits

Q: For LSLELLRKMIEARKQEKEKQQAANNRLLLDII-NH2, which “secretion of ACTH and β-END-LI” value [1] is on record?
A: inhibits
